In ChEMBL document CHEMBL2146457, “Development of 'DFG-out' inhibitors of gatekeeper mutant kinases” (Bioorg Med Chem Lett, 2012):

How the values were obtained:
[1] = Cytotoxicity against mouse BA/F3 cells expressing imatinib resistant Bcr-Abl […] mutant; type: functional, cell-based; details: BaF3
[2] = Cytotoxicity against wild type mouse BA/F3 cells; type: cell-based; details: BaF3
[3] = Cytotoxicity against mouse BA/F3 cells expressing wild type Bcr-Abl; type: functional, cell-based; details: BaF3
Rattus norvegicus = test: Oral bioavailability in rat at 2 mg/kg; type: ADME, organism-based; details: in vivo
[4] = Half life in rat at 1 mg/kg, iv; type: ADME, organism-based; set-up: dose 1 mg/kg, route intravenous; details: in vivo
[5] = Volume of distribution at steady state in rat at 1 mg/kg, iv; type: ADME, organism-based; set-up: dose 1 mg/kg, route intravenous; details: in vivo, read-out: Vdss
[6] = Clearance in rat at 1 mg/kg, iv; type: ADME, organism-based; set-up: dose 1 mg/kg, route intravenous; details: in vivo
[7] = Cmax in rat at 2 mg/kg, po; type: ADME, organism-based; set-up: dose 2 mg/kg, route oral; details: in vivo
[8] = AUC in rat at 2 mg/kg, po; type: ADME, organism-based; set-up: dose 2 mg/kg, route oral; details: plasma
[9] = MRT in rat at 1 mg/kg, iv; type: ADME, organism-based; set-up: dose 1 mg/kg, route intravenous; details: in vivo
[10] = Clearance in rat at 2 mg/kg, po; type: ADME, organism-based; set-up: dose 2 mg/kg, route oral; details: in vivo
[11] = Half life in rat at 2 mg/kg, po; type: ADME, organism-based; set-up: dose 2 mg/kg, route oral; details: in vivo
[12] = Cmax in rat at 1 mg/kg, iv; type: ADME, organism-based; set-up: dose 1 mg/kg, route intravenous; details: in vivo
[13] = MRT in rat at 2 mg/kg, po; type: ADME, organism-based; set-up: dose 2 mg/kg, route oral; details: in vivo
[14] = AUC in rat at 1 mg/kg, iv; type: ADME, organism-based; set-up: dose 1 mg/kg, route intravenous; details: plasma
[15] = Cytotoxicity against mouse parental BA/F3 cells; details: BaF3

Row | Compound | EC50 [1] [µM] | EC50 [2] [µM] | EC50 [3] [µM] | also measured
1 | CC(=O)N1CCN(CCC(=O)Nc2nc3ccc(-c4cccc(C(=O)Nc5cccc(C(F)(F)F)c5)c4)nc3s2)CC1 | > 10 | > 10 | 5.21 | 
2 | CCN1CCN(Cc2ccc(NC(=O)c3ccc(C)c(-c4ccc5nc(NC(=O)C6CC6)sc5n4)c3)cc2C(F)(F)F)CC1 | 0.06 | 1.23 | 0.001 | 
3 | Cc1cn(-c2cc(NC(=O)c3ccc(C)c(-c4ccc5nc(NC(=O)C6CC6)sc5n4)c3)cc(C(F)(F)F)c2)cn1 | 0.56 | 4.67 | 0.03 | 
4 | Cc1cn(-c2cc(NC(=O)c3ccc(F)c(-c4ccc5nc(NC(=O)C6CC6)sc5n4)c3)cc(C(F)(F)F)c2)cn1 | 0.59 | > 10 | 0.02 | 
5 | O=C(Nc1ccc(N2CCNCC2)c(C(F)(F)F)c1)c1cccc(-c2ccc3nc(NC(=O)C4CC4)sc3n2)c1 | 2.3 | 2.3 | 2.31 | 
6 | Cc1nc(Nc2nc3ccc(-c4cccc(C(=O)Nc5cccc(C(F)(F)F)c5)c4)nc3s2)cc(N2CCNCC2)n1 | 2.41 | 6.74 | 1.9 | 
7 | O=C(Nc1ccc(-n2ccnc2)cc1)c1cccc(-c2ccc3nc(NC(=O)C4CC4)sc3n2)c1 | > 10 | > 10 | > 10 | 
8 | CCN1CCN(Cc2ccc(NC(=O)c3cccc(-c4ccc5nc(NC(C)=O)sc5n4)c3)cc2C(F)(F)F)CC1 | 0.193 | 4.16 | 0.139 | 
9 | CCN1CCN(Cc2ccc(NC(=O)c3cccc(-c4ccc5nc(N)sc5n4)c3)cc2C(F)(F)F)CC1 | > 10 | > 10 | > 10 | 
10 | Cc1cn(-c2cc(NC(=O)c3cccc(-c4ccc5nc(NC(=O)C6CC6)sc5n4)c3)cc(C(F)(F)F)c2)cn1 | 0.19 | 1.99 | 0.38 | F (Rattus norvegicus): 3.7%; half-life [4]: 2.4 h; Vd [5]: 1.7 L/kg; clearance [6]: 9.5 mL/min/kg; Cmax [7]: 32 ng/mL; AUC [8]: 136 ng·h/mL; MRT [9]: 3.1 h; CL/F [10]: 303 mL/min/kg; half-life [11]: 3.7 h; Cmax [12]: 672 ng/mL; MRT [13]: 5.3 h; AUC [14]: 1850 ng·h/mL
11 | CCN1CCN(Cc2ccc(NC(=O)c3ccc(F)c(-c4ccc5nc(NC(=O)C6CC6)sc5n4)c3)cc2C(F)(F)F)CC1 | 0.3 | > 10 | 0.02 | 
12 | CC(=O)Nc1nc2ccc(-c3cccc(C(=O)Nc4cccc(C(F)(F)F)c4)c3)nc2s1 | 3.77 | > 10 | 5 | 
13 | O=C(Nc1cccc(C(F)(F)F)c1)c1cccc(-c2ccc3nc(NC(=O)C4CCNCC4)sc3n2)c1 | > 10 | > 10 | > 10 | 
14 | CCN1CCN(Cc2ccc(C(=O)Nc3cccc(-c4ccc5nc(NC(=O)C6CC6)sc5n4)c3)cc2C(F)(F)F)CC1 | 0.78 | > 10 | 0.2 | 
15 | CCN1CCN(Cc2ccc(NC(=O)c3cccc(-c4ccc5nc(NC(=O)C6CC6)sc5n4)c3)cc2C(F)(F)F)CC1 | 0.156 | 3.08 |  | F (Rattus norvegicus): 18.8%; half-life [4]: 5.8 h; Vd [5]: 6.5 L/kg; clearance [6]: 13.7 mL/min/kg; Cmax [7]: 53.1 ng/mL; AUC [8]: 462 ng·h/mL; MRT [9]: 8.1 h; CL/F [10]: 74.4 mL/min/kg; EC50 [15]: 3.08 µM; half-life [11]: 4.7 h; Cmax [12]: 292 ng/mL; MRT [13]: 7.7 h; AUC [14]: 1230 ng·h/mL
16 | Cc1cn(-c2cc(NC(=O)Nc3cccc(-c4ccc5nc(NC(=O)C6CC6)sc5n4)c3)cc(C(F)(F)F)c2)cn1 | 0.55 | > 10 | 1.24 | 
17 | CCN1CCN(Cc2ccc(NC(=O)c3cccc(-c4ccc5nc(Nc6ccccn6)sc5n4)c3)cc2C(F)(F)F)CC1 | 0.276 | 3.53 | 0.146 | 
18 | O=C(Nc1cccc(C(F)(F)F)c1)c1cccc(-c2ccc3nc(Nc4ccc(S(=O)(=O)N5CCNCC5)cc4)sc3n2)c1 | > 10 | > 10 | 6.21 | 
19 | Nc1nc2ccc(-c3cccc(C(=O)Nc4cccc(C(F)(F)F)c4)c3)nc2s1 | > 10 | > 10 | > 10 | 
20 | CCN1CCN(Cc2ccc(NC(=O)Nc3cccc(-c4ccc5nc(NC(=O)C6CC6)sc5n4)c3)cc2C(F)(F)F)CC1 | 0.013 | 0.69 | 0.018 | 
21 | O=C(Nc1nc2ccc(-c3cccc(C(=O)Nc4cccc(C(F)(F)F)c4)c3)nc2s1)NC1CCNCC1 | 7.18 | > 10 | 7.6 | 
22 | O=C(Nc1cccc(C(F)(F)F)c1)c1cccc(-c2ccc3nc(NC(=O)C4CC4)sc3n2)c1 | 0.96 | 0.91 | 0.42 | 
